Results on two compounds are retold here after article PMC8839189, “Bis-Amiridines as Acetylcholinesterase and Butyrylcholinesterase Inhibitors: N-Functionalization Determines the Multitarget Anti-Alzheimer’s Activity Profile” (Molecules, 2022).

Several values for one entry are separate records, joined by “and”; a condition that tells them apart may be missing. Identical values can stand only once.

The target of one experiment is T1, EeAChE PAS (Electrophorus electricus, UniProt O42275).
T1 construct: purchased Sigma-Aldrich type VI-S
Description: Propidium iodide displacement from the PAS of EeAChE. It is filed as binding, Electric eel. Conditions: compound concentration 20 µM. Here is the method: The enzyme was Electric eel AChE (EeAChE type VI-S, lyophilized powder, Sigma-Aldrich). We selected this source of AChE for consistency with our other reports and because of the purity, specific activity, and lower cost compared to human AChE.
The assay is based on the high level of fluorescence intensity of propidium iodide bound with AChE decreasing in the presence of test compounds that competitively displace propidium iodide from the AChE PAS [25, 27]. Specificially, EeAChE ([…] final concentration) is incubated with the test compound (20 μM in 1 mM Tris-HCl buffer pH 8.0, 25 °C, for 15 min). Propidium iodide (final concentration 8 μM) is then added for a further 15-min incubation and the fluorescence spectrum is taken (530 nm (excitation) and 600 nm (emission)). The same concentration of propidium iodide in the Tris-HCI buffer was used as the blank. Triplicate determinations were recorded from a FLUOStar Optima microplate reader and results calculated via the following equation:% Displacement = 100 − (IFAChE+ Propidium + inhibitor/IFAChE + Propidium) × 100(1) where IFAChE + Propidium = fluorescence intensity of propidium iodide associated with AChE in the absence of the test compound (taken as 100%), and IFAChE + Propidium + inhibitor = fluorescence intensity of propidium iodide associated with AChE in the presence of the test compound.

The target in the next experiment is T2, BChE (Equus caballus, UniProt P81908).
T2 construct: we used human erythrocyte AChE, equine serum BChE, and porcine liver CES; purchased Sigma-Aldrich; host or cells: equine serum
Description: Kinetic study of BChE inhibition (Lineweaver-Burk). Type of experiment: biochemical. Conditions: for type of BChE inhibition: Lineweaver–Burk plots; for Ki: competitive component; for αKi, BChE: non-competitive component. The procedure: (§1) We assessed the mechanisms of AChE and BChE inhibition by performing a thorough analysis of enzyme kinetics. After a 5 min incubation at 25 °C (for temperature equilibration) with three increasing concentrations of inhibitor and six decreasing substrate concentrations, the residual enzyme activity was measured as described above for enzymatic assays.

Experiment [1] is described as follows: ABTS radical cation scavenging activity assay. Particulars: 1 h incubation; for IC50: ABTS•+ 100 μM; for ABTS•+-Scavenging Activity, TEAC: Trolox equivalent antioxidant capacity. Here is the method:
Radical scavenging activity of the compounds was assessed using the ABTS radical cation (ABTS^•+) decolorization assay with modifications, described in detail in [30, 32]. ABTS (2,2′-azino-bis-(3-ethylbenzothiazoline-6-sulfonic acid)) was purchased from Tokyo Chemical Industry Co., Ltd. (Tokyo, Japan), potassium persulfate (dipotassium peroxodisulfate), Trolox (6-hydroxy-2,5,7,8-tetramethylchroman-2-carboxylic acid), HPLC-grade ethanol, and DMSO were obtained from Sigma-Aldrich. All tested compounds were dissolved in DMSO.
The reaction was monitored for 1 h with an interval of 1–10 min. Data are given for 1 h of incubation of compounds with ABTS^•+ (100 μM final concentration). The reduction in absorbance was measured spectrophotometrically at 734 nm using xMark UV/VIS microplate spectrophotometer (Bio-Rad, Hercules, CA, USA). Ethanol blanks were run in each assay. Values were obtained from three replicates of each sample and three independent experiments. Standard antioxidant Trolox was used as a reference compound. Trolox equivalent antioxidant capacity (TEAC) values were determined as the ratio between the slopes obtained from the linear correlation of the ABTS radical absorbance with the concentrations of tested compounds and Trolox.

In a further experiment the target is T3, AChE (Homo sapiens, UniProt P22303).
T3 construct: we used human erythrocyte AChE, equine serum BChE, and porcine liver CES; purchased Sigma-Aldrich; host or cells: human erythrocytes
Description: Kinetic study of AChE inhibition (Lineweaver-Burk). Type of experiment: biochemical. Conditions: for type of AChE inhibition: Lineweaver–Burk plots; for Ki: read-out: Ki, the competitive component, AChE. The procedure:
as §1

A further experiment deals with T4, equine serum BChE (Equus caballus, UniProt P81908).
T4 construct: we used human erythrocyte AChE, equine serum BChE, and porcine liver CES; purchased Sigma-Aldrich; host or cells: equine serum
The experiment is described as follows: biochemical. Particulars: mean ± SEM, n = 3; read-out: Equine Serum BChE, IC50.

In experiment [2] the target is T5, human erythrocyte AChE (Homo sapiens, UniProt P22303). The experiment is described as follows: biochemical.
The subject of the next experiment is porcine liver CES. Description: CES inhibition, 4-NPA substrate. Type of experiment: biochemical. Conditions: compound concentration 20 µM.
A further experiment addresses β-amyloid (1–42) (Aβ42) (Homo sapiens, UniProt P05067). The experiment is described as follows: Inhibition of Aβ42 self-aggregation, Thioflavin T fluorescence. Type of experiment: biochemical. Particulars: Aβ42 50 µM, compound 100 µM. The procedure:
The inhibitory effect of the test compounds toward Aβ42 self-aggregation was determined using the Thioflavin T (ThT) fluorescence method with minor modifications. […] Therefore, the decrease in ThT fluorescence correlates with the activity of studied compounds to inhibit the formation of amyloid aggregates.
A total of 1 mg of lyophilized HFIP-pretreated Aβ42 from rPeptide (Watkinsville, GA, USA) was dissolved in DMSO to obtain a stable initial solution ([Aβ42] = 500 μM), then it was aliquoted and stored at −20 °C.
Then, the samples were incubated for 24 h at 37 °C without stirring in the absence (base level of Aβ42 self-aggregation, control) or presence of the test compounds. Myricetin and propidium iodide were used as references (positive controls). All compounds were used at a concentration of 100 µM. […] Analyses were performed with a FLUOStar Optima microplate reader (LabTech, Ortenberg, Germany). […] Each assay was run in triplicate.

The target in experiment [3] is T5, human erythrocyte AChE. Conditions: 5d (m = 5) relative to 5a (m = 2).
Experiment [4] in a line: Ferric reducing antioxidant power (FRAP) assay. More on the design: key: ratio of Trolox to test compound concentration giving same FRAP effect. Conditions: Trolox equivalents; compound concentration 20 µM. The procedure:
The ferric reducing antioxidant power (FRAP) assay proposed by Benzie and Strain [106, 107] was modified to be performed in 96-well microplates, as described in detail in [32]. The FRAP reagent contained 2.5 mL of 10 mM TPTZ (2,4,6-tris(2-pyridyl)-s-triazine, Sigma-Aldrich) solution in 40 mM HCl, 2.5 mL of 20 mM FeCl3 (Sigma-Aldrich) in distilled water and 25 mL of 0.3 M acetate buffer (pH 3.6). Aliquots of 10 µL of the tested compound (compounds 3, 5 or reference substance) dissolved in DMSO (0.5 mM) were placed in quadruplicate. Absorbance was measured at the wavelength of 593 nm after 60-min incubation at 37 °C. In each case, Trolox was used as a reference compound to obtain the standard curve and value was calculated with respect to the activity of Trolox and expressed as Trolox equivalents (TE)—the values calculated as the ratio of the concentrations of Trolox and the test compound, resulting in the same effect on ferric reducing activity.

T2 sequence (P81908 whole entry): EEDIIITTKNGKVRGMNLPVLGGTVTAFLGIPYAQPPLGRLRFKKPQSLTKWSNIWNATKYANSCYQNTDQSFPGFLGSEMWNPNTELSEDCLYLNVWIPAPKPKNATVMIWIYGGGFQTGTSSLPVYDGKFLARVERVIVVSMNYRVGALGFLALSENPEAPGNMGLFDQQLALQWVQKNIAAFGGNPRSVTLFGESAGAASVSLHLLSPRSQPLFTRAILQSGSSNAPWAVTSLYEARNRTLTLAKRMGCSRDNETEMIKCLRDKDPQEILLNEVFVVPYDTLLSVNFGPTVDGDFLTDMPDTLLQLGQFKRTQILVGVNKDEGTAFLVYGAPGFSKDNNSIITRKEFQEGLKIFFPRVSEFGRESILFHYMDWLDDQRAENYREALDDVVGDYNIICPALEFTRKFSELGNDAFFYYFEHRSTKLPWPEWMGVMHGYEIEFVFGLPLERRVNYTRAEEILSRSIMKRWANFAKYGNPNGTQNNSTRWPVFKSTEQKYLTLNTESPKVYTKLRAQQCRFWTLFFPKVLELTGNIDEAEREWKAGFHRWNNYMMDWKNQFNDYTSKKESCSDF
T4 sequence (P81908 whole entry): as above
T3 sequence (P22303 other isoform, or with tags, fused parts or gaps): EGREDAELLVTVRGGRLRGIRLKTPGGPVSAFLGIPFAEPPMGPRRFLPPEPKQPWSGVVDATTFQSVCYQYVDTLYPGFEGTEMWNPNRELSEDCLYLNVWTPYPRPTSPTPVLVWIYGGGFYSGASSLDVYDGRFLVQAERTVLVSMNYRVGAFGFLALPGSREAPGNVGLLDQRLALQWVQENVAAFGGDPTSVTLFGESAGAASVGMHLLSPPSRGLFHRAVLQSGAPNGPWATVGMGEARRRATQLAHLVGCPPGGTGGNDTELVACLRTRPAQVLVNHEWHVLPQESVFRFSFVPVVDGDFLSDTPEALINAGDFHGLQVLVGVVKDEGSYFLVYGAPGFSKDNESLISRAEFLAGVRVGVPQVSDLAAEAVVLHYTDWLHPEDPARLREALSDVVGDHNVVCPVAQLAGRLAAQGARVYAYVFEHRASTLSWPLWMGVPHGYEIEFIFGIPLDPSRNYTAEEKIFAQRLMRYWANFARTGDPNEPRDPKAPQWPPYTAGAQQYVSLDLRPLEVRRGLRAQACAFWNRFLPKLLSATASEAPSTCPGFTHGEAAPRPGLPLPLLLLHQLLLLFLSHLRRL
T5 sequence (P22303 other isoform, or with tags, fused parts or gaps): as above
T1 sequence (O42275 24-633): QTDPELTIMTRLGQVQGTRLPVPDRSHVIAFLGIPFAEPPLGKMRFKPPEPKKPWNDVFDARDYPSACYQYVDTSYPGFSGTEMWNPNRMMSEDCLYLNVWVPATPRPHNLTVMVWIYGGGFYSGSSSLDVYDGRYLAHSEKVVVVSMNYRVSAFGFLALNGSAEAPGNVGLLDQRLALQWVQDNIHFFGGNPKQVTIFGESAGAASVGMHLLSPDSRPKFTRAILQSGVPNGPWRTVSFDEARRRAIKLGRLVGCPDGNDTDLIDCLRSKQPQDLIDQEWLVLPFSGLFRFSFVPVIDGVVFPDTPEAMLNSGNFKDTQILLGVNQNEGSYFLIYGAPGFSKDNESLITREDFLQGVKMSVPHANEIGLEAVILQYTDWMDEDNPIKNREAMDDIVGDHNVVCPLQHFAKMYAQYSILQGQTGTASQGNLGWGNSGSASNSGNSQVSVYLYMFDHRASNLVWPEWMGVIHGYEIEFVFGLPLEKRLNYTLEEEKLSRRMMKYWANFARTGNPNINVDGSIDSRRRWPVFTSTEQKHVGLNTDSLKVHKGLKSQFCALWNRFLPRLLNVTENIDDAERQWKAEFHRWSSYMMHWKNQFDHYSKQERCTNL
β-amyloid (1–42) (Aβ42), sequence (P05067 672-713): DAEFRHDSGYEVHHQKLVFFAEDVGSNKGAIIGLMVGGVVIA

By Ki is commonly meant the equilibrium dissociation constant of an inhibitor or competing ligand from its target. In general, IC50 refers to the midpoint of a concentration-inhibition curve. Regarding `O=C(CNCCNCC(=O)Nc1c2c(nc3c1CCC3)CCCC2)Nc1c2c(nc3c1CCC3)CCCC2` [Compound 3a], the “Displacement of Propidium from EeAChE PAS” value at EeAChE PAS amounted to 14.4 ± 1.2%. For the same compound, on BChE, the “type of BChE inhibition” value is recorded as “mixed-type inhibition”; the affinity, expressed as Ki, was 57.8 ± 2.5 nM; the “αKi, BChE” value amounted to 0.189 ± 0.007 µM. Also, in experiment [1], the 50% inhibitory concentration (IC50) was approximately 180000 nM and the “ABTS•+-Scavenging Activity, TEAC” value is recorded as 0.10 ± 0.004. In addition, on AChE, the “αKi, the non-competitive component, AChE” value was 2.62 ± 0.13 µM; the “type of AChE inhibition” value was “mixed-type inhibition”; the inhibitory constant (Ki) stood at 772 ± 47 nM. In addition, the 50% inhibitory concentration (IC50) on equine serum BChE turned out to be 110 ± 4 nM. In addition, the IC50 against human erythrocyte AChE [2] stood at 1640 ± 80 nM. The “Porcine Liver CES, (%) inhibition” value with porcine liver CES was 4.8 ± 0.4%.
A word on the inhibition: it is the relative decrease from the control value, in per cent. Turning to `S=C(NCCCCCNC(=S)Nc1c2c(nc3c1CCC3)CCCC2)Nc1c2c(nc3c1CCC3)CCCC2` [Compound 5d], the inhibition at 100 µM against β-amyloid (1–42) (Aβ42) amounted to 12.8 ± 1.1%. In addition, the “Displacement of Propidium from EeAChE PAS” value at EeAChE PAS was found to be 11.2 ± 1.0%. The “enhancement of anti-AChE activity, fold” value at human erythrocyte AChE [3] was found to be 24 fold. For the same compound, on BChE, the “type of BChE inhibition” value is listed as “mixed-type inhibition”; the affinity corresponds to a Ki of 340 ± 12 nM; the “αKi, BChE” value was 1.85 ± 0.06 µM. Besides, in [1], it took 10900 ± 700 nM to reach half-maximal inhibition (IC50) and the “ABTS•+-Scavenging Activity, TEAC” value worked out at 1.6 ± 0.06. Also, on AChE, the “αKi, the non-competitive component, AChE” value is 7.75 ± 0.11 µM; the “type of AChE inhibition” value is reported as “mixed-type inhibition”; the Ki was determined as 1180 ± 80 nM. In addition, on equine serum BChE, the half-maximal inhibitory concentration (IC50) was 760 nM and 758 nM. On human erythrocyte AChE [2], this compound yielded an IC50 of 4010 ± 130 nM. Besides, the “FRAP, TE” value in experiment [4] was 0.45 ± 0.03. Further, in the experiment with porcine liver CES, the “Porcine Liver CES, (%) inhibition” value turned out to be 12.8 ± 1.1%.
